Measured values from US5981517A, “Androstene derivatives” (priority 1997, dated 1999).
Several values for one entry are separate records, joined by “and”; a condition that tells them apart may be missing. Equal values may be shown once. Read-outs that look alike come from different tables or passages of the source.

Key:
rats = settings: oral; cited from earlier work
[1] = molecular target: T1, rat lung glucocorticoid receptor (Rattus norvegicus, UniProt P06536); settings: previously found, cited from earlier work
T1 construct: Immediately after resection of the lungs, the tissue was frozen in ice; The cytosol was prepared; from tissue; host or cells: lung cytosol of adrenalectomized male Sprague-Dawley rats
T1 sequence (P06536 1-795): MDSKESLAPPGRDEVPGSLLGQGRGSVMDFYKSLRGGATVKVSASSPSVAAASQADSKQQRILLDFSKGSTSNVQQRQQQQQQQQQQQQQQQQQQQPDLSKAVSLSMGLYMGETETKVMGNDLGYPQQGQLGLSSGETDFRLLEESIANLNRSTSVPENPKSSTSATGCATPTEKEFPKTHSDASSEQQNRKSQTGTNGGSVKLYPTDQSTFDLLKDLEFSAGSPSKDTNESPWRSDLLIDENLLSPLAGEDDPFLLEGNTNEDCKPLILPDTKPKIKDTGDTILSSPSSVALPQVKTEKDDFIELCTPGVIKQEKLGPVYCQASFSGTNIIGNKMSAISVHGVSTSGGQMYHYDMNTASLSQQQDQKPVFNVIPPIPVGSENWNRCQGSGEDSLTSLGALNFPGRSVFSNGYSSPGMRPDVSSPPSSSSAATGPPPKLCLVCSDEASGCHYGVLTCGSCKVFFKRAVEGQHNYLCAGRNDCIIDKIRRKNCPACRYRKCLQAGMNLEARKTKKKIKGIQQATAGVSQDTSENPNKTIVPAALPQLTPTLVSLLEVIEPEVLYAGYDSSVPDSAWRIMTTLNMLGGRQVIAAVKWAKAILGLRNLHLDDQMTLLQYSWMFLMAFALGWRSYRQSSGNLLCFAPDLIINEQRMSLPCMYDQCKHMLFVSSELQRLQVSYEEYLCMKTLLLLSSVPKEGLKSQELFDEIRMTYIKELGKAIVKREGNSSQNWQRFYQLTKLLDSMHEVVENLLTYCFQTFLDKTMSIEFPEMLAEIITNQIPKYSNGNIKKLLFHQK

[2] = test system: forearms of a human volunteer; assay: Further human vasoconstriction testing, Method 1; type: in vivo
Method: The mixtures, in 50 μL amounts, were applied to circular patches (8 mm diameter). After evaporation of ethanol, the patches were applied to the forearms of a human volunteer, and covered with a water impervious film for 3 hr. The intensity of vasoconstriction (scale 0-4) was judged at various time intervals after removal of the patches. The grading scale was as follows: 0, normal skin; 1, slight pallor of indistinct outline; 2, pallor with at least two corners outlined; 3, even pallor with a clear outline of the application sites; 4, very intense pallor. The skin tests (2-4 tests on each compound) were performed on the same person.

[3] = test system: forearm of a human volunteer; assay: Human vasoconstriction test; type: in vivo; set-up: key: 0 = normal skin, 4 = very intense pallor; settings: 10 mM
Method: Test compounds (10 mM) were dissolved in ethanol/propylene glycol (9/1) solution, and 50 μL of the mixtures were applied to circular patches, 8 mm in diameter. After ethanol evaporation, the patches were applied to the forearm of a human volunteer, and covered with a water impervious film for 3 hours. The intensity of vasoconstriction was judged 1, 8, 17 and 24 hours after the patches were removed.
The grading scale for the vasoconstriction activity was as follows: 0, normal skin; 1, slight pallor of indistinct outline; 2, pallor with at least two corners outlined; 3, even pallor with a clear outline of the application sites; 4, very intense pallor.

In the case of `CC(=O)O` [Acetic acid], the LD50 (rats) is given as 3530 mg/kg.

In the case of `CCOC(=O)O[C@]1(C(=O)OCCl)CC[C@H]2[C@@H]3CCC4=CC(=O)C=C[C@]4(C)[C@H]3[C@@H](O)C[C@@]21C` [Loteprednol etabonate, chloromethyl 17α-ethoxycarbonyloxy-11β-hydroxyandrosta-1,4-dien-3-one-17β-carboxylate, reference compound], the RBA ([1]; with Δ1-cortienic acid) is given as 420, the RBA ([1]; without Δ1-cortienic acid) is given as 152 and the Vasoconstriction activity ([2]; 3 Hours, 0.01 mM) is given as 0. It also gave a Vasoconstriction activity ([2]; 3 Hours, 0.05 mM) of 0, a Vasoconstriction activity ([2]; 3 Hours, 0.1 mM) of 1 and a Vasoconstriction activity ([2]; 3 Hours, 0.5 mM) of 2. For the same compound, the Vasoconstriction activity ([2]; 3 Hours, 1 mM) was 3, the Vasoconstriction activity ([2]; 3 Hours, 5 mM) was 3 and the Vasoconstriction activity ([2]; 3 Hours, 10 mM) was 4. It also gave a Vasoconstriction activity ([2]; 20 Hours, 0.01 mM) of 0, a Vasoconstriction activity ([2]; 20 Hours, 0.05 mM) of 0 and a Vasoconstriction activity ([2]; 20 Hours, 0.1 mM) of 0. For the same compound, the Vasoconstriction activity ([2]; 20 Hours, 0.5 mM) was 0, the Vasoconstriction activity ([2]; 20 Hours, 1 mM) was 0 and the Vasoconstriction activity ([2]; 20 Hours, 5 mM) was 1. The Vasoconstriction activity ([2]; 20 Hours, 10 mM) was 2, the Vasoconstriction activity ([3]; 1 hour after patch removal) was 2 and the Vasoconstriction activity ([3]; 8 hours after patch removal) was 3 and 2. The Vasoconstriction activity ([3]; 17 hours after patch removal) was 2 and the Vasoconstriction activity ([3]; 24 hours after patch removal) was 2 and 1.

In the case of `CCC(=O)O` [propionic acid], the LD50 (rats) is given as 4290 mg/kg.
